Columns and labels:
Format in all cases: in vivo
Diamondback moth = assay: Test examples 2: leaf dipping method, Diamondback moth; conditions: Plutella xylostella, foliar, 72 h, after 3 days, read-out: The mortality rate (%) of the compound to Diamondback moth; for mortality at 12.5 µg/mL: 12.5 mg/L; for mortality at 25 µg/mL: 25 mg/L; for mortality at 50 µg/mL: 50 mg/L
Experimental: (§1) A certain amount of compound (0.0001 g) was weighed by using an analytical balance, and prepared to a mother liquid (1%) with N, N-dimethylformamide containing 1% Tween-80 emulsifier, and then the mother liquid was diluted with distilled water for standby.
(§2) Leaf dipping method: an appropriate amount of corn leaves/cabbage/cowpea were infiltrated in the prepared liquid and dried in the shade naturally, and then placed in a culture dish with filter paper; armyworm/Diamondback moth/Beet Armyworm larvae in the 2-3rd instar were inoculated to the corn leaves, 10 heads per dish, and the dishes were cultured in an observation room at 24-27° C. The results were investigated after 3 days. […] The test concentrations were 50 mg/L, 25 mg/L, 12.5 mg/L, 6.25 mg/L, 3.13 mg/L, 1.56 mg/L.

Armyworm [1] = assay: Test examples 2: leaf dipping method, Armyworm; conditions: Mythimna separata, foliar, 72 h, after 3 days, read-out: The mortality rate (%) of the compound to Armyworm; for mortality at 12.5 µg/mL: 12.5 mg/L; for mortality at 25 µg/mL: 25 mg/L; for mortality at 50 µg/mL: 50 mg/L
Experimental: as §1, §2

Beet Armyworm = assay: Test examples 2: leaf dipping method, Beet Armyworm; conditions: Spodoptera exigua, foliar, 72 h, after 3 days, read-out: The mortality rate (%) of the compound to Beet Armyworm; for mortality at 12.5 µg/mL: 12.5 mg/L; for mortality at 25 µg/mL: 25 mg/L; for mortality at 50 µg/mL: 50 mg/L
Experimental: as §1, §2

[2] = tested on: Frankliniella occidentalis; assay: Test examples 2: spraying of cowpea leaf discs, Frankliniella occidentalis; conditions: foliar, 24 h, after 1 day, read-out: The mortality rate (%) of the compound to Frankliniella occidentalis; for mortality at 5 µg/mL: 5 mg/L; for mortality at 10 µg/mL: 10 mg/L; for mortality at 20 µg/mL: 20 mg/L
Experimental: as §1
Spraying: cowpea leaves growing uniformity were punched with a punching bear to make leaf discs, leaf discs were placed onto degreased cotton blocks in a dish, two leaf discs per dish, and water was added into the dish and it was flush with the leaf discs, and the dish was for standby. Frankliniella occidentalis in the 2-3rd instar were inoculated to the ready leaf discs, more than 15 per disc. Which were spayed under Potter spray tower at a dose of 0.5 mL per treatment. The blank control was treated first, and then the above operations were repeated in the order of the test dose from low to high, with 2 repeats per treatment. After treatment, the samples were placed in the observation room, and the results were investigated 1 day later. […] The test concentrations were 20 mg/L, 10 mg/L, 5.0 mg/L, 2.5 mg/L, 1.25 mg/L, 0.625 mg/L.

Armyworm [3] = assay: Test examples 3: leaf dipping method, cabbage, Armyworm; conditions: after 3 days
Experimental: A certain amount of compound (0.0001 g) was weighed by using an analytical balance, and prepared to a mother liquid (1) with N,N-dimethylformamide containing 1% Tween-80 emulsifier, and then the other liquid was diluted with distilled water or standby.
as §2, with “cabbage was” for “corn leaves/cabbage/cowpea were”, “Armyworm/Diamondback moth” for “armyworm/Diamondback moth/Beet Armyworm”, “inoculated,” for “inoculated to the corn leaves,”

Compound | mortality at 12.5 µg/mL (Diamondback moth) [%] | mortality at 25 µg/mL (Diamondback moth) [%] | mortality at 50 µg/mL (Diamondback moth) [%] | mortality at 12.5 µg/mL (Armyworm [1]) [%] | mortality at 25 µg/mL (Armyworm [1]) [%] | mortality at 50 µg/mL (Armyworm [1]) [%] | mortality at 12.5 µg/mL (Beet Armyworm) [%] | mortality at 25 µg/mL (Beet Armyworm) [%] | mortality at 50 µg/mL (Beet Armyworm) [%] | mortality at 5 µg/mL [2] [%] | mortality at 10 µg/mL [2] [%] | mortality at 20 µg/mL [2] [%] | The mortality rate (%) to Armyworm (Armyworm [3]; 12.5 mg/L) [%] | The mortality rate (%) to Armyworm (Armyworm [3]; 25 mg/L) [%] | The mortality rate (%) to Armyworm (Armyworm [3]; 50 mg/L) [%]
CCc1nc2ccc(Oc3ccc(C(C)(C)C)cc3)c(C)c2c(OC(=O)OCC2CCCO2)c1C (stereo not drawn) [Example 35, 6-(4-(tert-butyl)phenoxy)-2-ethyl-3,5-dimethylquinolin-4-yl ((tetrahydrofuran-2-yl)methyl) carbonate] | 80 | 90 | 100 | 80 | 95 | 100 | – | – | – | – | – | – | – | – | –
CCc1nc2cc(C)c(Oc3ccc(C(C)(C)C)cc3)c(C)c2c(OC(=O)OCCOC)c1C [Example 26, 6-(4-(tert-butyl)phenoxy)-2-ethyl-3,5,7-trimethylquinolin-4-yl (2-methoxyethyl) carbonate] | 85 | 95 | 100 | 90 | 100 | 100 | – | – | – | – | – | – | – | – | –
CCc1nc2cc(C)c(Oc3ccc(OC(F)(F)F)cc3)c(C)c2c(OC(=O)OCCOC)c1C [Example 18, 2-ethyl-3,5,7-trimethyl-6-(4-(trifluoromethoxy)phenoxy)quinolin-4-yl (2-methoxyethyl) carbonate] | 100 | 100 | 100 | 100 | 100 | 100 | 90 | 100 | 100 | 100 | 100 | 100 | – | – | –
CCc1nc2cc(C)c(Oc3ccc(OC(F)(F)F)cc3)c(C)c2c(OC(=O)OCC2CCCO2)c1C (stereo not drawn) [Example 37] | 95 | 100 | 100 | 100 | 100 | 100 | 75 | 100 | 100 | 95 | 100 | 100 | – | – | –
CCc1nc2cc(C)c(Oc3ccc(C(C)(C)C)cc3)c(C)c2c(OC(=O)OCC2CCCO2)c1C (stereo not drawn) [Example 36, 6-(4-(tert-butyl)phenoxy)-2-ethyl-3,5,7-trimethylquinolin-4-yl ((tetrahydrofuran-2-yl)methyl) carbonate] | 85 | 95 | 100 | 90 | 100 | 100 | – | – | – | – | – | – | – | – | –
2-ethyl-3,5,7-trimethyl-6-(4-(trifluoromethoxy)phenoxy)quinolin-4-ol [compound (42)] | – | – | – | – | – | – | – | – | – | – | – | – | 80 | 85 | 95
CCc1nc2cc(C)c(Oc3ccc(OC(F)(F)F)cc3)cc2c(OC(=O)OCCOCCOC)c1C [Example 7] | 85 | 90 | 100 | 100 | 100 | 100 | 80 | 100 | 100 | 95 | 100 | 100 | – | – | –
CCc1nc2ccc(Oc3ccc(C(C)(C)C)cc3)c(C)c2c(OC(=O)OCCOC)c1C [Example 22, 6-(4-(tert-butyl)phenoxy)-2-ethyl-3,5-dimethylquinolin-4-yl (2-methoxyethyl) carbonate] | 85 | 90 | 100 | 80 | 95 | 100 | – | – | – | – | – | – | – | – | –
CCOCCOC(=O)Oc1c(C)c(CC)nc2cc(C)c(Oc3ccc(OC(F)(F)F)cc3)cc12 [Example 17, 2-ethoxyethyl (2-ethyl-3,7-dimethyl-6-(4-(trifluoromethoxy)phenoxy)quinolin-4-yl) carbonate] | 100 | 100 | 100 | 100 | 100 | 100 | – | – | – | – | – | – | – | – | –
CCOCCOC(=O)Oc1c(C)c(CC)nc2cc(C)c(Oc3ccc(OC(F)(F)F)cc3)c(C)c12 [Example 40, 2-ethoxyethyl (2-ethyl-3,5,7-trimethyl-6-(4-(trifluoromethoxy)phenoxy)quinolin-4-yl) carbonate] | 95 | 100 | 100 | 95 | 100 | 100 | – | – | – | – | – | – | – | – | –
CCc1nc2ccc(Oc3ccc(OC(F)(F)F)cc3)c(C)c2c(OC(=O)OCC2CCCO2)c1C (stereo not drawn) [Example 38] | 92 | 100 | 100 | 90 | 100 | 100 | 70 | 100 | 100 | 90 | 100 | 100 | – | – | –
CCc1nc2cc(C)c(Oc3ccc(OC(F)(F)F)cc3)cc2c(OC(=O)OCC2CCCO2)c1C (stereo not drawn) [Example 8] | 93 | 100 | 100 | 100 | 100 | 100 | 70 | 95 | 100 | 85 | 100 | 100 | – | – | –
CCc1nc2ccc(Oc3ccc(OC(F)(F)F)cc3)c(C)c2c(OC(=O)OCCOC)c1C [Example 39, 2-ethyl-3,5-dimethyl-6-(4-(trifluoromethoxy)phenoxy)quinolin-4-yl (2-methoxyethyl) carbonate] | 100 | 100 | 100 | 100 | 100 | 100 | – | – | – | – | – | – | – | – | –
CCc1nc2cc(C)c(Oc3ccc(OC(F)(F)F)cc3)c(C)c2c(OC(=O)OCCOC(C)C)c1C [Example 41, 2-ethyl-3,5,7-trimethyl-6-(4-(trifluoromethoxy)phenoxy)quinolin-4-yl (2-isopropoxyethyl) carbonate] | 90 | 100 | 100 | 80 | 100 | 100 | – | – | – | – | – | – | – | – | –
CCc1nc2cc(C)c(Oc3ccc(C(C)(C)C)cc3)cc2c(OC(=O)OCCOC)c1C [Example 4, 6-(4-(tert-butyl)phenoxy)-2-ethyl-3,7-dimethylquinolin-4-yl (2-methoxyethyl)carbonate] | 90 | 100 | 100 | 80 | 90 | 100 | – | – | – | – | – | – | – | – | –
